# Columns and labels:
# [1] = DIM concentration in patients' blood plasma; assay type: in vivo, human; conditions: dose 100 mg
# Source text: Study of DIM Concentration in Patients' Blood Plasma These differences are probably attributed to effective therapeutic DIM concentrations reached in the peripheral blood and target tissues in response to DIM-HB treatment.
# [2] = design: species or system rats; conditions: rat, in vivo, 200 mg/kg
# Protocol: Concentration of 3,3′-diindolylmethane (μg/ml) in the Blood Plasma of Experimental Animals Given 200.0 mg/kg of 3,3′-diindolylmethane Substance Intrastomachically.
# The results of measurements of 3,3′-diindolylmethane substance concentration in the blood plasma of rats given the substance intrastomachically are shown in Table 1.
# 3,3′-diindolylmethane Concentration (μg/ml) in the Blood Plasma of Experimental Animals Given […] of High-Bioavailability 3,3′-diindolylmethane Intrastomachically.
# The results of measurements of 3,3′-diindolylmethane substance concentration in the blood plasma of rats given the substance intrastomachically are shown in Table 2.
# [3] = Clinical efficiency of DIM-HB and crystalline DIM in equal doses; assay type: in vivo, human
# Source text: All classical studies compared the efficiencies of DIM-HB and crystalline DIM in equal doses.
# These differences are probably attributed to effective therapeutic DIM concentrations reached in the peripheral blood and target tissues in response to DIM-HB treatment.
smiles,measurement,setting,value
"c1ccc2c(Cc3c[nH]c4ccccc34)c[nH]c2c1 [Crystalline DIM, 3,3′-diindolylmethane]",DIM concentration in the plasma,[1],20 to 30 ng/mL
same,maximum concentration in the system blood flow,[2],0.13 to 0.17 µg/mL
same,minimum concentration 12 hours after administration,[2],less than 0.03 μg/ml
same,time at which the maximum concentration was observed,[2],about 1 hour
same,dynamics in all study groups of patients in response to treatment,[3],no dynamics at all

# — US8697123B2, “Medication on the basis of 3,3′-diindolylmethane (DIM) with high-bioavailability and its use in treatment of human hyperplastic and inflammatory diseases” (Zakrytoye akstionernoye obschestvo “VELES FARMA”, priority 2010, dated 2014)
